Columns and labels:
[1] = Spectral (photophysical) properties of representative derivatives in DCM at room temperature; type: physicochemical; parameters: τf (fluorescent lifetime): unit not given here; conditions: for ΔStokes (Stokes shift=λem−λabs) / λabs (maximum absorption band more than 300 nm) / λem (excited at the longest maximum absorption band) / λex (excited wavelength) / τf (fluorescent lifetime) / ϕf (quantum yield): DCM, RM, 10−5M; for ϕf (quantum yield): quinine sulfate and rhodamine 6G as standard; for Effect of substituent on the fluorescent properties / emission: CH2Cl2 at RT
Text: The photo-physical properties of representative salts are studied in CH2Cl2 at RT (FIG. 1).
The corresponding absorption, emission and excitation, spectra are depicted in FIGS. 3, 4 and 5. […] The compounds display good quantum yields upto 0.76.
a The maximum absorption bands more than 300 nm; b Excited at the longest maximum absorption band in CH2Cl2; ^cExcited wavelength; ^dStokes shift=λem−λabs; ^eQuinine sulfate and rhodamine 6G was used as the standard; ^fFluorescent lifetime
The current invention provides compounds that display brightly fluorescence as well as a good ϕf. The salts are a novel class of fluorescent materials that contain a pyridinium-oxazole functional group and the photo-physical properties of representative salts are studied in CH2Cl2 at RT The absorption and excitation maxima, the photoluminescence (PL) maxima and quantum yields (FF), as well as the excited state lifetimes (tf) of these compounds in CH2Cl2 solution are listed in Tables 3, whereas the corresponding absorption, emission, excitation spectra are depicted in FIGS. 3, 4 and 5. […] These observations are indicative of a predominant π-π* character for the lowest excited state, and the life time tf values are consistent with a singlet multiplicity. Most of these compounds display good quantum yields upto 0.76 (3n). The radiative rate constants are barely affected by the substitution pattern, an indication of the similar excited state character for all compounds.

MCF-7 cells = assay: Localization and staining of mitochondria in living MCF-7 cells by fluorescence microscopy, with MitoTracker Green costaining; type: cell-based; conditions: 1 μM, 1 h
Procedure: MCF-7 cells were obtained from National Centre for Cell Science, Pune, India. For bio imaging purpose, the cells were seeded in a 6 well plate at a density of 10^5 cells/mL in Dulbecco's Modified Eagle's Medium+Ham's F12 containing 10% fetal bovine serum and a 0.1% antibiotic solution for 24 h at […] and 5% CO2 for adherence
MCF-7 cells (1×10^4 cells/mL/well) were seeded in a 6-well tissue culture plate for 48 h. The cells were then treated with 1 μM concentration of different organic molecules for 30 minutes. After thorough washing with 1×PBS (P^H 7.4), the cells are fixed used paraformaldehye (4% in PBS) for 15 minutes. Then cells were washed using 1×PBS twice. Further cells are permeated using 0.4% triton X in PBS for 30 seconds followed by treatment with 1 μg/mL of DAPI solution for 15 minutes. The cells are again ished twice with 1×PBS (P^H 7.4). Finally, a confocal fluorescence microscope (Nikon Eclipse: TE 2000-E, Japan). Bioimaging studies are carried out using red and green filters. (FIG. 2)
Cells are cultured and maintained as described above. Cells were treated with 1 μM compound for 30 min followed by washing with PBS. Further cells were treated with […] MG for 10 min and then washed with PBS. Cells were fixed and treated with DAPI as described above.
MCF-7 cells were incubated with 1 μM of 3n for 1 h, and excess dyes were washed away by buffer solution.

| SMILES | melting point [°C] | ΔStokes (Stokes shift=λem−λabs) [1] [nm] | λabs (maximum absorption band more than 300 nm) [1] [nm] | λem (excited at the longest maximum absorption band) [1] [nm] | λex (excited wavelength) [1] [nm] | τf (fluorescent lifetime) [1] | ϕf (quantum yield) [1] | Effect of substituent on the fluorescent properties / emission [1] | Staining / localization in mitochondria (MCF-7 cells) |
| --- | --- | --- | --- | --- | --- | --- | --- | --- | --- |
| Clc1ccc2c(c1)-c1c(-c3ccccc3)oc3cccc-2[n+]13.F[B-](F)(F)F | 206 to 208 |  |  |  |  |  |  |  |  |
| COc1ccccc1-c1oc2cccc3[n+]2c1-c1ccccc1-3.F[B-](F)(F)F | 228 to 229 |  |  |  |  |  |  |  |  |
| COc1cccc(-c2oc3cccc4[n+]3c2-c2ccccc2-4)c1.F[B-](F)(F)F [3q, 1-(3-methoxyphenyl)benzo[a]oxazolo[4,3,2-cd]indolizin-10-ium tetrafluoroborate] | 206 to 208 | 079 | 376 | 455 | 332 | 2.0 | 0.20 |  |  |
| COc1ccc(Cl)c(-c2cc3ccccc3c3cccc(=O)n23)c1 [3y″, 6-(2-chloro-5-methoxyphenyl)-4H-pyrido[2,1-a]isoquinolin-4-one] | 186 to 187 |  |  |  |  |  |  |  |  |
| Cc1ccc(/C=c2\c3ccccc3c3cccc(=O)n23)cc1Cl [3z″, (E)-6-(3-chloro-4-methylbenzylidene)pyrido[2,1-a]isoindol-4(6H)-one] | 194 to 195 |  |  |  |  |  |  |  |  |
| F[B-](F)(F)F.c1ccc(-c2oc3cccc4[n+]3c2-c2ccccc2-4)cc1 [3a, 1-phenylbenzo[a]oxazolo[4,3,2-cd]indolizin-10-ium tetrafluoroborate] | 192 to 193 | 036 | 368 | 404 | 338 | 1.2 | 0.10 |  |  |
| Cc1cccc2c1-c1cccc3oc(-c4ccccc4)c-2[n+]13.F[B-](F)(F)F | 220 to 221 |  |  |  |  |  |  |  |  |
| Clc1ccc(-c2oc3cccc4[n+]3c2-c2ccccc2-4)cc1.F[B-](F)(F)F [3m, 1-(4-chlorophenyl)benzo[a]oxazolo[4,3,2-cd]indolizin-10-ium tetrafluoroborate] | 274 to 275 | 040 | 370 | 410 | 339 | 1.7 | 0.19 |  |  |
| F[B-](F)(F)F.Fc1ccc(-c2oc3cccc4[n+]3c2-c2ccccc2-4)cc1 [3l, 1-(4-fluorophenyl)benzo[a]oxazolo[4,3,2-cd]indolizin-10-ium tetrafluoroborate] | 254 to 255 | 042 | 372 | 414 | 343 | 0.9 | 0.09 | only a modest effect on the fluorescent properties |  |
| Cc1ccc(-c2oc3cccc4[n+]3c2-c2ccccc2-4)cc1.F[B-](F)(F)F | 222 to 223 |  |  |  |  |  |  |  |  |
| CCCCC(=O)c1ccc(-c2oc3cccc4[n+]3c2-c2ccccc2-4)cc1.F[B-](F)(F)F | 202 to 204 |  |  |  |  |  |  |  |  |
| Clc1cccc(-c2oc3cccc4[n+]3c2-c2ccccc2-4)c1.F[B-](F)(F)F | 204 to 206 |  |  |  |  |  |  |  |  |
| CC(C)c1ccc(-c2oc3cccc4[n+]3c2-c2ccccc2-4)cc1.F[B-](F)(F)F | 214 to 215 |  |  |  |  |  |  |  |  |
| CN(C)c1ccc(-c2oc3cccc4[n+]3c2-c2ccccc2-4)cc1.F[B-](F)(F)F [3n, 1-(4-(dimethylamino)phenyl)benzo[a]oxazolo[4,3,2-cd]indolizin-10-ium tetrafluoroborate] | 242 to 244 | 049 | 506 | 555 | 511 | 9.1 | 0.76 |  | stains specifically the mitochondrial region |
| Cc1ccc2c(c1)-c1cccc3oc(-c4ccccc4)c-2[n+]13.F[B-](F)(F)F | 224 to 226 |  |  |  |  |  |  |  |  |
| F[B-](F)(F)F.Fc1ccc2c(c1)-c1cccc3oc(-c4ccccc4)c-2[n+]13 | 255 to 256 |  |  |  |  |  |  |  |  |
| F[B-](F)(F)F.c1ccc2c(c1)-c1cccc3oc(-c4ccc5ccccc5c4)c-2[n+]13 [3c, 1-(naphthalen-2-yl)benzo[a]oxazolo[4,3,2-cd]indolizin-10-iumtetrafluoroborate] |  | 071 | 410 | 481 | 364 | 5.2 | 0.49 | stronger effect on the fluorescent properties |  |
| F[B-](F)(F)F.c1ccc2c(c1)-c1cccc3oc(-c4cccc5ccccc45)c-2[n+]13 | 198 to 200 |  |  |  |  |  |  |  |  |
| CCCCOc1ccc(-c2oc3cccc4[n+]3c2-c2ccccc2-4)cc1.F[B-](F)(F)F | 183 to 185 |  |  |  |  |  |  |  |  |
| COc1ccc(-c2oc3cccc4[n+]3c2-c2ccccc2-4)cc1.F[B-](F)(F)F [3j, 1-(4-methoxyphenyl)benzo[a]oxazolo[4,3,2-cd]indolizin-10-ium tetrafluoroborate] | 190 to 192 | 053 | 405 | 458 | 338 | 2.4 | 0.42 | only a modest effect on the fluorescent properties |  |
| Clc1ccc2c(c1)-c1cccc3oc(-c4ccccc4)c-2[n+]13.F[B-](F)(F)F | 208 to 210 |  |  |  |  |  |  |  |  |
| F[B-](F)(F)F.c1ccc2c(c1)-c1cccc3oc(-c4cc5ccccc5c5ccccc45)c-2[n+]13 [3d, 1-(phenanthren-9-yl)benzo[a]oxazolo[4,3,2-cd]indolizin-10-ium tetrafluoroborate] | 230 to 232 | 076 | 411 | 487 | 365 | 7.2 | 0.54 | stronger effect on the fluorescent properties |  |
